Several values for one entry are separate records, joined by “and”; a condition that tells them apart may be missing. Equal entries are not always repeated. Toxic doses and inconclusive results are not listed.
Test system: BDF1 mice, P388 leukemia ip, median survival T/C
Assay: NCI In Vivo Anticancer Drug Screen. Data for tumor model P388 Leukemia (intraperitoneal) in B6D2F1 (BDF1) mice
Settings: endpoint: median survival time, higher = longer survival
Outline: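 Compound-treated tumour-bearing mice were compared with vehicle-treated controls. Survival was recorded, and the value is the treated-group measurement divided by the control-group measurement (T/C).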

[1] = dose: 50.0 mg/kg/injection, schedule: Q01DX009 (ip), vehicle: saline
[2] = dose: 50.0 mg/kg/injection, schedule: Q04DX003 (ip), vehicle: saline
[3] = dose: 100.0 mg/kg/injection, schedule: Q01DX009 (ip), vehicle: saline
[4] = dose: 100.0 mg/kg/injection, schedule: Q04DX003 (ip), vehicle: saline
[5] = dose: 100.0 mg/kg/injection, schedule: Q01DX001 (ip), vehicle: Klucel (hydroxypropylcellulose) (HPC)
[6] = dose: 6.25 mg/kg/injection, schedule: Q01DX009 (ip), vehicle: saline
[7] = dose: 12.5 mg/kg/injection, schedule: Q01DX009 (ip), vehicle: saline
[8] = dose: 25.0 mg/kg/injection, schedule: Q04DX003 (ip), vehicle: saline

## CCn1c(O)c(C=N)c(=O)[nH]c1=O
[1]
  T/C: 100 % of control
[2]
  T/C: 103 % of control
[3]
  T/C: 109 % of control
[4]
  T/C: 100 % of control
dose: 200.0 mg/kg/injection, schedule: Q01DX009 (ip), vehicle: saline
  T/C: 109 % of control
dose: 200.0 mg/kg/injection, schedule: Q04DX003 (ip), vehicle: saline
  T/C: 115 % of control

## CNC1(c2ccccc2)C(=O)CC2CCC1C2 (stereo not drawn)
dose: 25.0 mg/kg/injection, schedule: Q01DX001 (ip), vehicle: Klucel (hydroxypropylcellulose) (HPC)
  T/C: 105 % of control
dose: 50.0 mg/kg/injection, schedule: Q01DX001 (ip), vehicle: Klucel (hydroxypropylcellulose) (HPC)
  T/C: 105 % of control
[5]
  T/C: 100 % of control

## O=[N+]([O-])c1cc(C(F)(F)F)ccc1/C=C/c1ccccc1Br
dose: 75.0 mg/kg/injection, schedule: Q04DX003 (ip), vehicle: saline with Tween-80
  T/C: 86 % of control
dose: 150.0 mg/kg/injection, schedule: Q04DX003 (ip), vehicle: saline with Tween-80
  T/C: 90 % of control
dose: 300.0 mg/kg/injection, schedule: Q04DX003 (ip), vehicle: saline with Tween-80
  T/C: 100 % of control

## N#CN1CC(C(=O)N2CCCCC2)C=C2c3cccc4[nH]cc(c34)CC21 (stereo not drawn)
[6]
  T/C: 106 % of control
dose: 6.25 mg/kg/injection, schedule: Q04DX003 (ip), vehicle: saline
  T/C: 114 % of control
[7]
  T/C: 94 % of control
dose: 12.5 mg/kg/injection, schedule: Q04DX003 (ip), vehicle: saline
  T/C: 113 % of control
[8]
  T/C: 106 % of control
[1]
  T/C: 88 % of control
[2]
  T/C: 106 % of control
[4]
  T/C: 94 % of control

## N#Cc1cnn(C(N)=S)c1N
[8]
  T/C: 104 % of control
[2]
  T/C: 104 % of control
[4]
  T/C: 100 % of control

## COc1ccc(COC(=O)NC(CCS(C)=O)C(=O)O)cc1 (stereo not drawn)
dose: 50.0 mg/kg/injection, schedule: Q01DX009 (ip), vehicle: saline with Tween-80
  T/C: 91 % of control
dose: 100.0 mg/kg/injection, schedule: Q01DX009 (ip), vehicle: saline with Tween-80
  T/C: 99 % of control
dose: 200.0 mg/kg/injection, schedule: Q01DX009 (ip), vehicle: saline with Tween-80
  T/C: 99 % of control

## CCOC(=O)c1c(C)[nH]c(C)c1-c1ccccc1
[5]
  T/C: 109 % of control
dose: 200.0 mg/kg/injection, schedule: Q01DX001 (ip), vehicle: Klucel (hydroxypropylcellulose) (HPC)
  T/C: 109 % of control
dose: 400.0 mg/kg/injection, schedule: Q01DX001 (ip), vehicle: Klucel (hydroxypropylcellulose) (HPC)
  T/C: 109 % of control

## Nc1ccc2ccccc2c1N=Nc1ccc(C(O)C(N)CO)cc1 (stereo not drawn)
dose: 6.25 mg/kg/injection, schedule: Q01DX009 (ip), vehicle: saline sonified
  T/C: 100 % of control
dose: 12.5 mg/kg/injection, schedule: Q01DX009 (ip), vehicle: saline sonified
  T/C: 112 % of control
dose: 25.0 mg/kg/injection, schedule: Q01DX009 (ip), vehicle: saline sonified
  T/C: 100 % of control

## Cc1cc(C)cc(NCCC#N)c1
dose: 100.0 mg/kg/injection, schedule: Q01DX009 (ip), vehicle: other
  T/C: 115 % of control
dose: 200.0 mg/kg/injection, schedule: Q01DX009 (ip), vehicle: other
  T/C: 115 % of control
dose: 400.0 mg/kg/injection, schedule: Q01DX009 (ip), vehicle: other
  T/C: 105 % of control

## O=C(Nc1ccc(Cl)cc1)P(=O)(O)c1ccccc1
[6]
  T/C: 98 % of control
[7]
  T/C: 104 % of control
dose: 25.0 mg/kg/injection, schedule: Q01DX009 (ip), vehicle: saline
  T/C: 98 % of control
[1]
  T/C: 99 % of control
[3]
  T/C: 100 % of control and 102 % of control

## [N-]=[N+]=CC(=O)NCC(=O)NO
dose: 180.0 mg/kg/injection, schedule: Q01DX009 (ip), vehicle: water
  T/C: 172 % of control
dose: 270.0 mg/kg/injection, schedule: Q01DX009 (ip), vehicle: water
  T/C: 172 % of control
dose: 400.0 mg/kg/injection, schedule: Q01DX009 (ip), vehicle: water
  T/C: 204 % of control
